{
  "source": "paper PMC12251226",
  "about": "“Comparison of in silico predictions of action potential duration in response to inhibition of IKr and ICaL with new human ex vivo recordings” (PLOS Computational Biology, 2025)",
  "key": {"[1]": {"tested_on": "adult human ventricular trabeculae", "test": "Ex vivo sharp electrode action potential recording (APD90) in ventricular trabeculae, 1 Hz pacing", "conditions": "for Change in APD90 (in words): over the tested concentrations; for Mean ΔAPD90 (SEM): 25 min steady 1 Hz pacing"}, "[2]": {"target": "T1, CaV1.2 channels (Homo sapiens, UniProt Q13936)", "T1 sequence (Q13936 whole entry)": "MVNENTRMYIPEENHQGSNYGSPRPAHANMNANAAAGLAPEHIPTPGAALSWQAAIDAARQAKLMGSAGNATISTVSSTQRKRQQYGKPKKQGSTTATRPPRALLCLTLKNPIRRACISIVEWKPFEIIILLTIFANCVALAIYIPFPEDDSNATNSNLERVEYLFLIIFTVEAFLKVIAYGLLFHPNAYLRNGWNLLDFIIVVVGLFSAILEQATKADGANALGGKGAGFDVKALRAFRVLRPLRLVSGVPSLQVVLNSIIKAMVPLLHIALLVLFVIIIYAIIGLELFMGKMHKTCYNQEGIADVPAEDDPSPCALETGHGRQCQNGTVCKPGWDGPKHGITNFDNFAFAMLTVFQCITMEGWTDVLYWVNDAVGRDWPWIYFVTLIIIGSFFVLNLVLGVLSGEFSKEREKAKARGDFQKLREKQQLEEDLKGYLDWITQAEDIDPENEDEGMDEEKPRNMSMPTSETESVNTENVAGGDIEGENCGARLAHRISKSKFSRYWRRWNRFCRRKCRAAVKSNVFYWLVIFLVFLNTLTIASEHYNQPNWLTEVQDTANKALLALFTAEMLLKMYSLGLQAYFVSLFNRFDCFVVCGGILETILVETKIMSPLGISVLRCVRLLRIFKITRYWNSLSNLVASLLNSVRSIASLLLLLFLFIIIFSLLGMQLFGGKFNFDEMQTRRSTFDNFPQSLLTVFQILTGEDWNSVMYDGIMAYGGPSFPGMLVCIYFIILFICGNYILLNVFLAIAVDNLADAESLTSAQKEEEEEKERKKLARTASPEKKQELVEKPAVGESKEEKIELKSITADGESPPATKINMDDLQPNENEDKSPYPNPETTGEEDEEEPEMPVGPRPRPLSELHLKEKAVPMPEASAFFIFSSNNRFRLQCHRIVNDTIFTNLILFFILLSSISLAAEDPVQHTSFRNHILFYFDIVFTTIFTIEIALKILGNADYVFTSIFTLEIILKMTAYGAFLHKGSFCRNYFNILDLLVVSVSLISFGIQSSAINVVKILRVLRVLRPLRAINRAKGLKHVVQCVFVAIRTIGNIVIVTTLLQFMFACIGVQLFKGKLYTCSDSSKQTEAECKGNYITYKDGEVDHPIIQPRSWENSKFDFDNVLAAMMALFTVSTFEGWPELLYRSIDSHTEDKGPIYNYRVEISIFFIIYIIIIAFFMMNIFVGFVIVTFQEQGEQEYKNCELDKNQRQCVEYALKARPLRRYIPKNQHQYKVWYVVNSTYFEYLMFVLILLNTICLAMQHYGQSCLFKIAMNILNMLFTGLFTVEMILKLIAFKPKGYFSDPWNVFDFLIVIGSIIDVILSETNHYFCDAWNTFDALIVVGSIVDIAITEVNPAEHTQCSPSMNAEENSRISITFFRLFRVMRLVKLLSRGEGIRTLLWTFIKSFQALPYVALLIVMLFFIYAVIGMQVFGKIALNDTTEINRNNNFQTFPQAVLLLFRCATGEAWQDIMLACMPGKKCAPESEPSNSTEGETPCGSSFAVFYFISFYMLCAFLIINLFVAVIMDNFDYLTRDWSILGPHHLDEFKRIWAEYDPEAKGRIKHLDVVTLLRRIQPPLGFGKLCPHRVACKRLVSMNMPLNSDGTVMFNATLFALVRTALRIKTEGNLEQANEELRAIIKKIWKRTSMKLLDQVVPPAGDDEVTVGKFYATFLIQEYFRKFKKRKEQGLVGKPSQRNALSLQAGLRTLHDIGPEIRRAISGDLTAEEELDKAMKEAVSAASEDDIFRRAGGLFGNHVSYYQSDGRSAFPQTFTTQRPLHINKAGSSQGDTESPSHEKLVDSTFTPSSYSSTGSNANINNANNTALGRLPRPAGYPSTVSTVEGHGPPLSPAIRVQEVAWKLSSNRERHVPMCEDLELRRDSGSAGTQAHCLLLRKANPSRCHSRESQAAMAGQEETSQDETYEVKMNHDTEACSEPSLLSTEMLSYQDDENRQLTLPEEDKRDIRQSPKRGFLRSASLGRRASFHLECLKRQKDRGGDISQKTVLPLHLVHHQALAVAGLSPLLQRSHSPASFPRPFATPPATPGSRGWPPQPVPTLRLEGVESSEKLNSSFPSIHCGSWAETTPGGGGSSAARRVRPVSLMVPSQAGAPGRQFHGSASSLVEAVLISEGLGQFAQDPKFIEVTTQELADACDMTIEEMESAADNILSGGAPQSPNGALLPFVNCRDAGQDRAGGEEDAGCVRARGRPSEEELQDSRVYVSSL", "T1 sequence (Q08289 whole entry partner)": "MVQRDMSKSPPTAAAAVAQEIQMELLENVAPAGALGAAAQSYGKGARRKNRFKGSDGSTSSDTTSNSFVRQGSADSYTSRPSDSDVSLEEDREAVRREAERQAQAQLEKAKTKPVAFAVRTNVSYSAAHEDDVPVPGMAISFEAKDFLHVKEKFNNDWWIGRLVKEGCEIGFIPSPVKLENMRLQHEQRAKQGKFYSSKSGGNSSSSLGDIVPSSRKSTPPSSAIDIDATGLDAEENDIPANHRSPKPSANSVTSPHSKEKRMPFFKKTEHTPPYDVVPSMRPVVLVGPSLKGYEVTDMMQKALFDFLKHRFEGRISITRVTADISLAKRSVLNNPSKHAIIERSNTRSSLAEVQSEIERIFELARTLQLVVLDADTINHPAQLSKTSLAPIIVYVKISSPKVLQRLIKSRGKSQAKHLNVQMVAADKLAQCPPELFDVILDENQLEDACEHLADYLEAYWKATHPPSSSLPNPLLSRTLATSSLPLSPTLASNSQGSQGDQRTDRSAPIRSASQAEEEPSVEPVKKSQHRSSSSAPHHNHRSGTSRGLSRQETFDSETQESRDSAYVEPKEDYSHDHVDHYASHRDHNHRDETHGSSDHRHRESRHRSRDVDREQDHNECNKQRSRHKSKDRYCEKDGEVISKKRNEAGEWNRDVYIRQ", "T1 sequence (P54289 25-956 partner limits assumed)": "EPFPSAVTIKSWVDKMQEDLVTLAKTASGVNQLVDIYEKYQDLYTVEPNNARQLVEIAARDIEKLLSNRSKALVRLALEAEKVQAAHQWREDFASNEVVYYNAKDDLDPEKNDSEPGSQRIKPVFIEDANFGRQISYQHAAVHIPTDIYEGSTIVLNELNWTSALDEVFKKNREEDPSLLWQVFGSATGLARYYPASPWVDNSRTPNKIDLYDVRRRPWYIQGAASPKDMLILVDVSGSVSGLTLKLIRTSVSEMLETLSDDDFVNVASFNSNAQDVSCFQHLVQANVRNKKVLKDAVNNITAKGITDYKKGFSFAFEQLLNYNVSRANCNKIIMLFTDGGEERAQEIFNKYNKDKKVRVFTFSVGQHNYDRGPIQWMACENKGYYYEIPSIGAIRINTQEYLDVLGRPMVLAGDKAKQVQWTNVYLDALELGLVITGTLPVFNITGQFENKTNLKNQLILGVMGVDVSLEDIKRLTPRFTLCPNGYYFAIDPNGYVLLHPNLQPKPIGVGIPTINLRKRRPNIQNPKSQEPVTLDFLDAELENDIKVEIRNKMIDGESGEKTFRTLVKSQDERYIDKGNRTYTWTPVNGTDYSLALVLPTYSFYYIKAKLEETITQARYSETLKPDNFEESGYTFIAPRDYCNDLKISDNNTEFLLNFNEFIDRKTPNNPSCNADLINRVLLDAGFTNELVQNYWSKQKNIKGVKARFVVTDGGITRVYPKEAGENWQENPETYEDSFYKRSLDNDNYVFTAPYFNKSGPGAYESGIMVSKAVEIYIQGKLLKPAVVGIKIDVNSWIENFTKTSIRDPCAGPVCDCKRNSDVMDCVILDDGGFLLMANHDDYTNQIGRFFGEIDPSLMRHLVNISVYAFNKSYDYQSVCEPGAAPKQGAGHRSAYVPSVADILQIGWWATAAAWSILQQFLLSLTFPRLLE", "T1 sequence (P54289 957-1103 partner limits assumed)": "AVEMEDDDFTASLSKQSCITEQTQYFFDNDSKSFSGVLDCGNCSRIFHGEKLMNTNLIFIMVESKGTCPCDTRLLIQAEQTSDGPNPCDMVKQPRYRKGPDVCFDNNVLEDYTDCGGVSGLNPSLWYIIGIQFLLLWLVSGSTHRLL", "conditions": "CaV1.2, CHO cells, Pharm protocol"}, "[3]": {"target": "T1, CaV1.2 channels", "conditions": "CaV1.2, CHO cells, CiPA protocol"}, "[4]": {"target": "CaV1.2 (ICaL) (Homo sapiens, UniProt Q13936)", "test": "in vitro", "conditions": "CHO cells expressing human CaV1.2/β2/α2δ"}, "[5]": {"target": "hERG (IKr) (Homo sapiens, UniProt Q12809)", "test": "Automated patch clamp, IKr Pharm (Roche in-house) protocol, CHO cells", "conditions": "human"}, "[6]": {"target": "T2, hERG channels (Homo sapiens, UniProt Q12809)", "T2 sequence (Q12809 whole entry)": "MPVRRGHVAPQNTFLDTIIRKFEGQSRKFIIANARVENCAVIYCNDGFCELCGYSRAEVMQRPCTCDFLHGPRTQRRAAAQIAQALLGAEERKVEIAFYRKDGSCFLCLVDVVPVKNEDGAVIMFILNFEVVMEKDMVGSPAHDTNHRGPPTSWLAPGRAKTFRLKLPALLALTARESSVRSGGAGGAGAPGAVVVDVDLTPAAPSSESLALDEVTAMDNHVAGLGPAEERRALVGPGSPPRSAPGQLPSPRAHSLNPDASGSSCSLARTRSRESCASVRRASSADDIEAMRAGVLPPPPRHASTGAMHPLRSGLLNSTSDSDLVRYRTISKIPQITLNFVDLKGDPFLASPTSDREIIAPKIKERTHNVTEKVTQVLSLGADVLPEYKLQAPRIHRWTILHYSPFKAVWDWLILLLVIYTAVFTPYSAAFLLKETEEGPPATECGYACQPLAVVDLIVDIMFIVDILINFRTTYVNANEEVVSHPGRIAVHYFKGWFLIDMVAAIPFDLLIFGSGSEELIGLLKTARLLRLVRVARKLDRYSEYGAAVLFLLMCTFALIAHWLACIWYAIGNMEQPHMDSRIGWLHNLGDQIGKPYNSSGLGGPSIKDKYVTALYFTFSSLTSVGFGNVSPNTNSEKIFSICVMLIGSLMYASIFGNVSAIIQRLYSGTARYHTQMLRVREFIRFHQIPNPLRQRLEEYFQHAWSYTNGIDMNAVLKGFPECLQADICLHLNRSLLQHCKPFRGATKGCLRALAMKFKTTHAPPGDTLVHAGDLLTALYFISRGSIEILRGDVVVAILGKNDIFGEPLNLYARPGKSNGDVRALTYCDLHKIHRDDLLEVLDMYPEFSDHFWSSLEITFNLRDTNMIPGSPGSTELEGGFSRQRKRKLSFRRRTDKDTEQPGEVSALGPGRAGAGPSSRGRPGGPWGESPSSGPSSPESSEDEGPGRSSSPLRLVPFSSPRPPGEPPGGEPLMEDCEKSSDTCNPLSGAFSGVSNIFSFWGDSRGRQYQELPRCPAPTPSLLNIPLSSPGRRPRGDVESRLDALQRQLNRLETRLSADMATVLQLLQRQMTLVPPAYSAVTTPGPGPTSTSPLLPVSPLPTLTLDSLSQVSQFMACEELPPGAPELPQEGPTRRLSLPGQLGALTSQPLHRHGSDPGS", "test": "Automated patch clamp, IKr CiPA protocol, CHO cells", "format": "cell-based", "set-up": "expressed in transfected cells; host or cells: CHO (crelox)"}, "[7]": {"tested_on": "hERG", "conditions": "cited from earlier work"}, "[8]": {"target": "T1, CaV1.2 channels", "test": "cell-based"}, "[9]": {"target": "T2, hERG channels", "test": "Automated patch clamp, IKr Pharm (Roche in-house) protocol, CHO cells", "conditions": "hERG, CHO cells, Pharm protocol"}, "[10]": {"target": "T1, CaV1.2 channels", "test": "cell-based", "remark": "listed apart in the source"}},
  "note": "pIC50: −log10 of the molar value. Where two headings read alike, the source gives them in different places.",
  "data": [
    {"smiles": "CN(C)CCCN1c2ccccc2Sc2ccc(Cl)cc21", "note": "[Chlorpromazine]", "values": [
      {"measurement": "Change in APD90 (in words)", "setting": "[1]", "result": "little or no change in APD90"},
      {"measurement": "ICaL Pharm Hill coefficient h", "setting": "[2]", "result": 0.88},
      {"measurement": "ICaL CiPA Hill coefficient h", "setting": "[3]", "result": 0.93}
    ]},
    {"smiles": "CN1CCN(C2=Nc3cc(Cl)ccc3Nc3ccccc32)CC1", "note": "[Clozapine]", "values": [
      {"measurement": "Change in APD90 (in words)", "setting": "[1]", "result": "little or no change in APD90"},
      {"measurement": "inhibition at 3 µM", "setting": "[4]", "result": 59, "unit": "%"},
      {"measurement": "inhibition at 3 µM", "setting": "[5]", "result": 57, "unit": "%"},
      {"measurement": "IKr CiPA Hill coefficient h", "setting": "[6]; human", "result": 0.94}
    ]},
    {"smiles": "CN(CCOc1ccc(NS(C)(=O)=O)cc1)CCc1ccc(NS(C)(=O)=O)cc1", "note": "[Dofetilide]", "values": [
      {"measurement": "pIC50", "setting": "[7]", "result": "[…]"}
    ]},
    {"smiles": "CNCCC(Oc1ccc(C(F)(F)F)cc1)c1ccccc1", "note": "(centres unmarked) [Fluoxetine]", "values": [
      {"measurement": "Mean ΔAPD90 (SEM)", "setting": "[1]; nominal drug conc 3 μM", "result": "–2 (5) ms"},
      {"measurement": "Change in APD90 (in words)", "setting": "[1]", "result": "little or no change in APD90"},
      {"measurement": "ICaL Pharm Hill coefficient h", "setting": "[2]", "result": 0.94},
      {"measurement": "ICaL CiPA Hill coefficient h", "setting": "[3]", "result": 0.90}
    ]},
    {"smiles": "CN1CCCCC1CCN1c2ccccc2Sc2ccc([S+](C)[O-])cc21", "note": "(centres unmarked) [Mesoridazine]", "values": [
      {"measurement": "pIC50", "setting": "[8]", "result": 5.39},
      {"measurement": "Mean ΔAPD90 (SEM)", "setting": "[1]; nominal drug conc 0.04 μM", "result": "–2 (7) ms"},
      {"measurement": "Change in APD90 (in words)", "setting": "[1]", "result": "little or no change in APD90"},
      {"measurement": "ICaL Pharm Hill coefficient h", "setting": "[2]", "result": 0.76},
      {"measurement": "IKr Pharm Hill coefficient h", "setting": "[9]", "result": 1},
      {"measurement": "IKr CiPA Hill coefficient h", "setting": "[6]; hERG, CHO cells, CiPA protocol", "result": 0.74},
      {"measurement": "pIC50", "setting": "[10]", "result": 5.40},
      {"measurement": "ICaL CiPA Hill coefficient h", "setting": "[3]", "result": 0.83}
    ]},
    {"smiles": "COC(=O)C1=C(C)NC(C)=C(C(=O)OC)C1c1ccccc1[N+](=O)[O-]", "note": "[Nifedipine]", "values": [
      {"measurement": "Mean ΔAPD90 (SEM)", "setting": "[1]; nominal drug conc 0.03 μM", "result": "–5 (6) ms"},
      {"measurement": "Mean ΔAPD90 (SEM)", "setting": "[1]; nominal drug conc 0.3 μM", "result": "–24 (6) ms"}
    ]},
    {"smiles": "C=C[C@H]1C[N@@]2CC[C@H]1C[C@@H]2[C@@H](O)c1ccnc2ccc(OC)cc12", "note": "[Quinidine]", "values": [
      {"measurement": "pIC50", "setting": "[7]", "result": "[…]"}
    ]},
    {"smiles": "COc1ccc(CCN(C)CCCC(C#N)(c2ccc(OC)c(OC)c2)C(C)C)cc1OC", "note": "(centres unmarked) [Verapamil]", "values": [
      {"measurement": "Mean ΔAPD90 (SEM)", "setting": "[1]; nominal drug conc 0.01 μM", "result": "–15 (4) ms"},
      {"measurement": "Mean ΔAPD90 (SEM)", "setting": "[1]; nominal drug conc 0.1 μM", "result": "–19 (5) ms"},
      {"measurement": "Change in APD90 (in words)", "setting": "[1]", "result": "substantially shortened APD90"}
    ]}
  ]
}
